# Square brackets hold non-standard residues; d marks the D form. Side chains are listed from the residue outwards. Peptide text beside a SMILES is read from it. * marks the point of attachment. Piperidinyl(4-(1-Pro-OH)) = O=C(O)[C@@H]1CCCN1C1CCN(*)CC1; Piperidin1yl(4-NH2,4-COOH) = NC1(C(=O)O)CCN(*)CC1; Homopiperazine(4-amidino) = N=C(N)N1CCCN(*)CC1; d(hArg) = N=C(N)NCCCC[C@@H](N)C(=O)O; dAgb = N=C(N)NCC[C@@H](N)C(=O)O; Homopiperazinyl = C1CNCCN(*)C1; dAgp = N=C(N)NC[C@@H](N)C(=O)O; dNle = CCCC[C@@H](N)C(=O)O; dDab = NCC[C@@H](N)C(=O)O; Api = NC1(C(=O)O)CCNCC1
# How the values were obtained:
# [1] = target: T1, mouse kappa opioid receptor (mKOR) (Mus musculus, UniProt P33534); experiment: cell-based; settings: for Emax: read-out: mKOR Efficacy(%)
# T1 construct: Stimulation of Endogenous Mouse Kappa-Opioid Receptor in R1.G1 Cells; host or cells: R1.G1 mouse thymoma cells
# [2] = target: T2, human kappa opioid receptor (hKOR) (Homo sapiens, UniProt P41145); experiment: cell-based; settings: for Emax: HEK293, read-out: hKOR Efficacy(%)
# T2 construct: expressed in transfected cells; host or cells: HEK-293 cells, transient transfection with Fugene6
# T2 sequence (P41145 whole entry): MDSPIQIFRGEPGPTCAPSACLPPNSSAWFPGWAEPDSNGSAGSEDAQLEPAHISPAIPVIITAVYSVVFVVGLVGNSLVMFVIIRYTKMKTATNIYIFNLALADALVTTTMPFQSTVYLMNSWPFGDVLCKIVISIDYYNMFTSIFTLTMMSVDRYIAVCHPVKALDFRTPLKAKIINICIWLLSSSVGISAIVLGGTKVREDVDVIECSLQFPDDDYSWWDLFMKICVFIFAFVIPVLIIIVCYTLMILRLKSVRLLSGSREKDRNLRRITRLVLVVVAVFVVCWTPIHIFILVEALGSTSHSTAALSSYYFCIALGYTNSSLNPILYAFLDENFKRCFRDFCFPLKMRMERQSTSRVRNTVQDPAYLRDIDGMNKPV
# T1 sequence (P33534 whole entry): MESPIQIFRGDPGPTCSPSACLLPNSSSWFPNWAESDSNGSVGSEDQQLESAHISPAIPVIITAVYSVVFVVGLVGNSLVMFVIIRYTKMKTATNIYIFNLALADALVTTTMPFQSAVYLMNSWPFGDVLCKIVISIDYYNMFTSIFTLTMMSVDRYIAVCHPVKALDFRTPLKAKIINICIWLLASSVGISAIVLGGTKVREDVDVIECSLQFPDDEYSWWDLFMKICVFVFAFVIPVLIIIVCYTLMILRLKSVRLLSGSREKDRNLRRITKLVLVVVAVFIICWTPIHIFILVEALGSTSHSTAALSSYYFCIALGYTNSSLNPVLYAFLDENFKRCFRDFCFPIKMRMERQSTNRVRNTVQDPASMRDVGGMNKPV
Structure (SMILES),EC50 [1] [nM],Emax [1] [%],EC50 [2] [nM],Emax [2] [%]
"CNCCCC[C@@H](NC(=O)[C@@H](CC(C)C)NC(=O)[C@@H](Cc1ccccc1)NC(=O)[C@H](N)Cc1ccccc1)C(=O)N1CCCN(C(=N)N)CC1 [Compound (1), D-Phe-D-Phe-D-Leu-(ε-Me)D-Lys-[4-amidinohomopiperazine amide]]",0.043,103,0.15,97
"CNCCCC[C@@H](NC(=O)[C@@H](CC(C)C)NC(=O)[C@@H](Cc1ccccc1)NC(=O)[C@H](N)Cc1ccccc1)C(=O)N1CCC(N)(C(=O)O)CC1 [Compound (3), D-Phe-D-Phe-D-Leu-(ε-Me)D-Lys-[ω(4-aminopiperidine-4-carboxylic acid)]-OH]",0.052,96,0.16,100
"CNCCCC[C@@H](NC(=O)[C@@H](CC(C)C)NC(=O)[C@@H](Cc1ccccc1)NC(=O)[C@H](N)Cc1ccccc1)C(=O)N1CCC(N2CCC[C@H]2C(=O)O)CC1 [Compound (6), D-Phe-D-Phe-D-Leu-(ε-Me)D-Lys-[N-(4-piperidinyl)-L-proline]-OH]",0.036,94,0.13,100
"CC(C)C[C@@H](NC(=O)[C@@H](Cc1ccccc1)NC(=O)[C@H](N)Cc1ccccc1)C(=O)N[C@H](CCCNC(=N)N)C(=O)N1CCCNCC1 [Compound (7), D-Phe-D-Phe-D-Leu-D-Arg-[homopiperazine amide]] (H-[dF][dF][dL][dR]-Homopiperazinyl)",0.012,98,0.11,100
"CC(C)C[C@@H](NC(=O)[C@@H](Cc1ccccc1)NC(=O)[C@H](N)Cc1ccccc1)C(=O)N[C@H](CCCCNC(=N)N)C(=O)N1CCC(N)(C(=O)O)CC1 [Compound (8), D-Phe-D-Phe-D-Leu-D-Har-[ω(4-aminopiperidine-4-carboxylic acid)]-OH] (H-[dF][dF][dL][d(hArg)]-{Piperidin1yl(4-NH2,4-COOH)})",0.043,90,0.12,96
"CC(C)C[C@@H](NC(=O)[C@@H](Cc1ccccc1)NC(=O)[C@H](N)Cc1ccccc1)C(=O)N[C@H](CCCCNC(C)C)C(=O)N1CCC(N)(C(=O)O)CC1 [Compound (9), D-Phe-D-Phe-D-Leu-(ε-iPr)D-Lys-[ω(4-aminopiperidine-4-carboxylic acid)]-OH]",0.078,96,0.17,90
"CC(C)C[C@@H](NC(=O)[C@@H](Cc1ccccc1)NC(=O)[C@H](N)Cc1ccccc1)C(=O)N[C@H](CNC(=N)N)C(=O)N1CCC(N)(C(=O)O)CC1 [Compound (10), D-Phe-D-Phe-D-Leu-(β-amidino)D-Dap-[ω(4-aminopiperidine-4-carboxylic acid)]-OH] (H-[dF][dF][dL][dAgp]-{Piperidin1yl(4-NH2,4-COOH)})",0.826,90,0.3,86
"CC(C)C[C@@H](NC(=O)[C@@H](Cc1ccccc1)NC(=O)[C@H](N)Cc1ccccc1)C(=O)N[C@H](CCNC(=N)N)C(=O)N1CCC(N)(C(=O)O)CC1 [Compound (11), D-Phe-D-Phe-D-Leu-D-Nar-[ω(4-aminopiperidine-4-carboxylic acid)]-OH] (H-[dF][dF][dL][dAgb]-{Piperidin1yl(4-NH2,4-COOH)})",0.052,92,0.15,82
"CC(C)C[C@@H](NC(=O)[C@@H](Cc1ccccc1)NC(=O)[C@H](N)Cc1ccccc1)C(=O)N[C@H](CCN)C(=O)N1CCC(N2CCC[C@H]2C(=O)O)CC1 [Compound (12), D-Phe-D-Phe-D-Leu-D-Dbu-[N-(4-piperidinyl)-L-proline]-OH] (H-[dF][dF][dL][dDab]-{Piperidinyl(4-(1-Pro-OH))})",0.055,89,0.17,–
"CC(C)C[C@@H](NC(=O)[C@@H](Cc1ccccc1)NC(=O)[C@H](N)Cc1ccccc1)C(=O)N[C@H](CCNC(=N)N)C(=O)N1CCC(N2CCC[C@H]2C(=O)O)CC1 [Compound (13), D-Phe-D-Phe-D-Leu-D-Nar-[N-(4-piperidinyl)-L-proline]-OH] (H-[dF][dF][dL][dAgb]-{Piperidinyl(4-(1-Pro-OH))})",0.032,88,0.13,90
"CC(C)C[C@@H](NC(=O)[C@@H](Cc1ccccc1)NC(=O)[C@H](N)Cc1ccccc1)C(=O)N[C@H](CNC(=N)N)C(=O)N1CCC(N2CCC[C@H]2C(=O)O)CC1 [Compound (14), D-Phe-D-Phe-D-Leu-D-Dap(amidino)-[N-(4-piperidinyl)-L-proline]-OH] (H-[dF][dF][dL][dAgp]-{Piperidinyl(4-(1-Pro-OH))})",0.349,86,0.21,81
"CC(C)C[C@@H](NC(=O)[C@@H](Cc1ccccc1)NC(=O)[C@H](N)Cc1ccccc1)C(=O)N[C@H](CCCCN)C(=O)N1CCCN(C(=N)N)CC1 [Compound (15), D-Phe-D-Phe-D-Leu-D-Lys-[4-amidinohomopiperazine amide]]",0.028,92,0.11,92
"CC(C)C[C@@H](NC(=O)[C@@H](Cc1ccccc1)NC(=O)[C@H](N)Cc1ccccc1)C(=O)N[C@H](CCCCNC(=N)N)C(=O)N1CCCN(C(=N)N)CC1 [Compound (16), D-Phe-D-Phe-D-Leu-D-Har-[4-amidinohomopiperazine amide]] (H-[dF][dF][dL][d(hArg)]-{Homopiperazine(4-amidino)})",0.021,105,0.11,96
"CC(C)C[C@@H](NC(=O)[C@@H](Cc1ccccc1)NC(=O)[C@H](N)Cc1ccccc1)C(=O)N[C@H](CCCCNC(C)C)C(=O)N1CCCN(C(=N)N)CC1 [Compound (17), D-Phe-D-Phe-D-Leu-(ε-iPr)D-Lys-[4-Amidinohomopiperazine amide]]",0.039,103,0.1,102
"CC(C)C[C@@H](NC(=O)[C@@H](Cc1ccccc1)NC(=O)[C@H](N)Cc1ccccc1)C(=O)N[C@H](CNC(=N)N)C(=O)N1CCCN(C(=N)N)CC1 [Compound (18), D-Phe-D-Phe-D-Leu-(β-amidino)D-Dap-[4-amidinohomopiperazine amide]] (H-[dF][dF][dL][dAgp]-{Homopiperazine(4-amidino)})",1.02,103,1.15,93
"CCCC[C@@H](NC(=O)[C@@H](Cc1ccccc1)NC(=O)[C@H](N)Cc1ccccc1)C(=O)N[C@H](CNC(=N)N)C(=O)N1CCCN(C(=N)N)CC1 [Compound (19), D-Phe-D-Phe-D-Nle-(β-amidino)D-Dap-[4-amidinohomopiperazine amide]] (H-[dF][dF][dNle][dAgp]-{Homopiperazine(4-amidino)})",2.15,99,–,–
"CCCC[C@@H](NC(=O)[C@@H](Cc1ccccc1)NC(=O)[C@H](N)Cc1ccccc1)C(=O)N[C@H](CCCNC(=N)N)C(=O)N1CCC[C@@H]1C(=O)O [Compound (40), D-Phe-D-Phe-D-Nle-D-Arg-D-Pro-OH] (H-[dF][dF][dNle][dR][dP]-OH)",9.05,88,–,–
"CC(C)C[C@@H](NC(=O)[C@@H](Cc1ccccc1)NC(=O)[C@H](N)Cc1ccccc1)C(=O)N[C@H](CCCN)C(=O)N[C@H]1CN[C@H](C(=O)O)C1 [Compound (41), D-Phe-D-Phe-D-Leu-D-Orn-[(2S,4R)-4-amino-pyrrolidine-2-carboxylic acid]-OH]",50.6,87,–,–
"CC(C)C[C@@H](NC(=O)[C@@H](Cc1ccccc1)NC(=O)[C@H](N)Cc1ccccc1)C(=O)N[C@H](CCCN)C(=O)N[C@@H]1CN[C@H](C(=O)O)C1 [Compound (42), D-Phe-D-Phe-D-Leu-D-Orn-[(2S,45)-4-amino-pyrrolidine-2-carboxylic acid]-OH]",3,96,–,–
"CC(C)C[C@@H](NC(=O)[C@@H](Cc1ccccc1)NC(=O)[C@H](N)Cc1ccccc1)C(=O)N[C@H](CCCN)C(=O)NC1CCN(CC(N)=O)CC1 [Compound (51), D-Phe-D-Phe-D-Leu-D-Orn-[4-amino-1-carboxymethyl-piperidine]-NH2]",1.97,93,–,–
CC(C)C[C@@H](NC(=O)[C@@H](Cc1ccccc1)NC(=O)[C@H](N)Cc1ccccc1)C(=O)N[C@H](CCCN)C(=O)NCCCC[C@@H](NC(=O)[C@H](N)CCCN)C(=O)O [Compound (82)],0.12,–,–,–
CC(C)C[C@@H](N)C(=O)N[C@H](CCCN)C(=O)N[C@H](CCCCNC(=O)[C@@H](CCCN)NC(=O)[C@@H](CC(C)C)NC(=O)[C@@H](Cc1ccccc1)NC(=O)[C@H](N)Cc1ccccc1)C(=O)O [Compound (83)],0.05,91,–,–
CC(C)C[C@@H](NC(=O)[C@H](N)Cc1ccccc1)C(=O)N[C@H](CCCN)C(=O)N[C@H](CCCCNC(=O)[C@@H](CCCN)NC(=O)[C@@H](CC(C)C)NC(=O)[C@@H](Cc1ccccc1)NC(=O)[C@H](N)Cc1ccccc1)C(=O)O [Compound (84)],0.34,85,–,–
"CC(C)C[C@@H](NC(=O)[C@@H](Cc1ccccc1)NC(=O)[C@H](N)Cc1ccccc1)C(=O)N[C@H](CCCNC(C)C)C(=O)NC1(C(=O)O)CCN(C(=O)[C@@H](CCCNC(C)C)NC(=O)[C@@H](CC(C)C)NC(=O)[C@@H](Cc2ccccc2)NC(=O)[C@H](N)Cc2ccccc2)CC1 [Compound (86), 1N,4N-bis-[D-Phe-D-Phe-D-Leu-(iPr)D-Orn]-4-amino-4-carboxylic-piperidine]",56.7,77,–,–
"CC(C)C[C@@H](NC(=O)[C@@H](Cc1ccccc1)NC(=O)[C@H](N)Cc1ccccc1)C(=O)N[C@H](CCNC(=N)N)C(=O)NC1(C(=O)O)CCN(C(=O)[C@@H](CCNC(=N)N)NC(=O)[C@@H](CC(C)C)NC(=O)[C@@H](Cc2ccccc2)NC(=O)[C@H](N)Cc2ccccc2)CC1 [Compound (88), 1N,4N-bis-(D-Phe-D-Phe-D-Leu-D-Nar)-4-amino-4-carboxylic piperidine] (H-[dF][dF][dL][dAgb][Api]([dAgb-dL-dF-dF])-OH)",13.8,76,–,–
